Measurements: article PMC9025336 (Antibiotics, 2022)
≈ marks a conversion by molar mass, not a printed value. Peptide text beside a SMILES is read from it. * marks the point of attachment. Orn(α-tetramethylguanidino) = CN(C)C(=N[C@@H](CCCN)C(=O)*)N(C)C

Key:
[1] = tested on: E. coli BL21 (DE3) RIL ribosome extract; conditions: values published for E. coli BL21 (DE3) RIL ribosome extract; read-out: Kd (printed in column Ros); cited from earlier work
Source text: Table 2 Antibacterial activities, dissociation (Kd), and inhibition constants (Ki) of ribosome binding obtained for all PrAMPs included in the current study for E. coli strains BW25113 (BW) and Rosetta DE3 pLysS (Ros). | column: Kd [µmol/L] ** / Ros

[2] = tested on: 70S ribosome, ribosomal binding site of Api88; experiment: Fluorescence polarization competition with cf-Api88; set-up: species or system Escherichia coli; conditions: Figure S3, twice in triplicate
Method: Ki was determined for ribosome extracts using cf-labeled and unlabeled peptides in ribosome preparation buffer. Black 384-well plates were prepared as described above. Unlabeled peptides or antibiotics (20 µL, 656 µmol/L) were added and 2-fold serially diluted in 23 wells in ribosome preparation buffer. A ribosome solution was prepared by adjusting the ribosome concentration to ~90% of the upper Kd plateau obtained for the cf-labeled peptide to be studied and added to each well (10 µL). After incubation (28 ± 1 °C, 90 min), the cf-labeled peptide (10 µL, 80 nmol/L) was added and incubated (28 ± 1 °C, 90 min). The fluorescence polarization was measured on a […] microplate reader in the top read position (λexc = 485 nm, λem = 535 nm) in triplicate on at least two different days. Data were fitted to a nonlinear, dose–response logistical transition equation [y= y0 + a/(1 + (x/x0)b)] using the Levenberg–Marquardt algorithm, with the half-maximal inhibition constants (IC50) represented by the x0 coefficients (GraphPad Prism for Windows v. 5.02, San Diego, CA, USA). Inhibition constants, Ki, were calculated as described by Mathias and Jung.
Pept ide Concent r at ion [ nM]
Figure S3. Fluorescence polarization assay testing Api88 an d Api137 in competition with cf-Api88 and cf-Api137, respectively, for the corresponding ribosomal binding sites. Experiments were done twice in triplicates. […]

[3] = tested on: E. coli BL21 (DE3) RIL ribosome extract; conditions: values published for E. coli BL21 (DE3) RIL ribosome extract; read-out: Ki, cf-Api137; cited from earlier work
[4] = tested on: E. coli BL21 (DE3) sbmA::Tn10^Cm + psbmA_A31G/G219T; type: cell-based, Escherichia coli
Method: (§1) The minimal inhibitory concentrations (MIC) were determined at least twice in triplicate using a liquid broth microdilution assay in sterile 96-well plates and a total volume of 100 μL per well. Aqueous peptide solutions were serially 2-fold diluted in 25% MHBII or 33% TSB medium in a volume of 50 µL. An overnight culture was diluted in 25% MHBII or 33% TSB medium to 1.5 × 10^7 CFU/mL, and an aliquot of 50 μL was added to each well. The final cell count in each well was 7.5 × 10^6 CFU/mL. The plates were incubated at 37 °C for 20 ± 2 h. The turbidity of each well was measured at a wavelength of 600 nm. The MIC was defined as the lowest peptide concentration where the turbidity was identical to medium only.
(§2) E. coli strain BL21(DE3) was randomly mutagenized by Tn10 insertion using the lambda phage lysate λNK1324 carrying a chloramphenicol resistance and grown on LB agar plates in the presence of chloramphenicol (15 µg/mL) at 30 °C overnight. The resistant colonies were transferred to 25% MHBII agar plates containing Api137 (32 or 64 µg/mL) and incubated again at 37 °C overnight. Genomic DNA was isolated by a Monarch® Genomic DNA purification kit (New England Biolabs, Frankfurt am Main, Germany) from the presumed double-resistant strains, and the sequences flanking the transposon insertion were determined by arbitrary primed PCR using arbitrary primer ARB6 and Tn10 transposon-specific primer IS10-R complementary to the IS10 element of Tn10 transposon. The first round of amplification included six cycles of denaturation (95 °C, 30 s), annealing (30 °C, 30 s), and extension (72 °C, 90 s), followed by 30 cycles of denaturation (95 °C, 30 s), annealing (45°C, 30 s), and extension (72 °C, 2 min), as well as a final extension (72 °C, 6 min). The second round of amplification used arbitrary primer ARB2 and primer IS10-R. The PCR consisted of 30 cycles of denaturation (95 °C, 30 s), annealing (52 °C, 30 s), and extension (72 °C, 2 min), followed by a final extension step (72 °C, 6 min). PCR products were purified with the NucleoSpin® Gel and a PCR cleanup kit (Macherey-Nagel, Düren, Germany) and sequenced using primer IS10-R (Eurofins MWG Operon, Ebersberg, Germany), and the corresponding protein was identified in a sequence database (UniProt and NCBI, 2021).

[5] = tested on: E. coli BL21 (DE3) sbmA::Tn10^Cm + psbmA; type: cell-based, Escherichia coli
Method: as §1, §2

[6] = 25% MHBII containing IPTG (0.1 mmol/L)
[7] = 33% TSB containing IPTG (0.1 mmol/L)

Structure (SMILES)	Kd [1]	inhibition of the binding of cf-labeled Api88 [2]	Ki [3]	MIC, 25% MHBII [4, 6]	MIC, 33% TSB [4, 7]	MIC, 25% MHBII [5, 6]	MIC, 33% TSB [5, 7]
CC[C@H](C)[C@H](NC(=O)[C@H](Cc1ccc(O)cc1)NC(=O)[C@@H](NC(=O)[C@@H]1CCCN1C(=O)[C@H](CCCNC(=N)N)NC(=O)[C@H](CC(N)=O)NC(=O)[C@H](CC(N)=O)NC(=O)[C@H](CCCN)N=C(N(C)C)N(C)C)C(C)C)C(=O)N1CCC[C@H]1C(=O)N[C@@H](CCCNC(=N)N)C(=O)N1CCC[C@H]1C(=O)N[C@@H](CCCNC(=N)N)C(=O)N1CCC[C@H]1C(=O)N1CCC[C@H]1C(=O)N[C@@H](Cc1c[nH]cn1)C(=O)N1CCC[C@H]1C(=O)N[C@@H](CCCNC(=N)N)C(=O)N[C@@H](CC(C)C)C(N)=O [Api88] ({Orn(α-tetramethylguanidino)}-NNRPVYIPRPRPPHPRL-NH2)	1220 nM	did not inhibit	180 nM	–	–	–	–
CC[C@H](C)[C@H](NC(=O)[C@H](Cc1ccc(O)cc1)NC(=O)[C@@H](NC(=O)[C@@H]1CCCN1C(=O)[C@H](CCCNC(=N)N)NC(=O)[C@H](CC(N)=O)NC(=O)[C@H](CC(N)=O)NC(=O)[C@H](CCCN)N=C(N(C)C)N(C)C)C(C)C)C(=O)N1CCC[C@H]1C(=O)N[C@@H](CCCNC(=N)N)C(=O)N1CCC[C@H]1C(=O)N[C@@H](CCCNC(=N)N)C(=O)N1CCC[C@H]1C(=O)N1CCC[C@H]1C(=O)N[C@@H](Cc1c[nH]cn1)C(=O)N1CCC[C@H]1C(=O)N[C@@H](CCCNC(=N)N)C(=O)N[C@@H](CC(C)C)C(=O)O [Api137] ({Orn(α-tetramethylguanidino)}-NNRPVYIPRPRPPHPRL-OH)	–	–	–	4 µg/mL (≈ 1.75 µM)	8 µg/mL (≈ 3.49 µM)	8 µg/mL (≈ 3.49 µM)	8 µg/mL (≈ 3.49 µM)
